Results on 33 compounds are retold here after patent publication US8778871B2 (Takeda Pharmaceutical Company Limited, priority 2004, dated 2014).

Starred links: 1 amine or outer side, 2 acyl side, 3 side chain; linkers in the order of their positions; H or OH if unused. Non-standard residues stand in square brackets, D forms with d. Residues, ends and D or L forms follow the SMILES beside them. Primed or numbered codes have the meaning given here. Tyr(Me) = COc1ccc(C[C@H](N[*:1])C(=O)[*:2])cc1; d1Nal = N[C@H](Cc1cccc2ccccc12)C(=O)O; Arg(Me) = CNC(=N)NCCC[C@H](N)C(=O)O; Abu = CC[C@H](N)C(=O)O; Aib = CC(C)(N)C(=O)O; azaGly = NNC(=O)O

T1 sequence (Q969F8 whole entry L364H): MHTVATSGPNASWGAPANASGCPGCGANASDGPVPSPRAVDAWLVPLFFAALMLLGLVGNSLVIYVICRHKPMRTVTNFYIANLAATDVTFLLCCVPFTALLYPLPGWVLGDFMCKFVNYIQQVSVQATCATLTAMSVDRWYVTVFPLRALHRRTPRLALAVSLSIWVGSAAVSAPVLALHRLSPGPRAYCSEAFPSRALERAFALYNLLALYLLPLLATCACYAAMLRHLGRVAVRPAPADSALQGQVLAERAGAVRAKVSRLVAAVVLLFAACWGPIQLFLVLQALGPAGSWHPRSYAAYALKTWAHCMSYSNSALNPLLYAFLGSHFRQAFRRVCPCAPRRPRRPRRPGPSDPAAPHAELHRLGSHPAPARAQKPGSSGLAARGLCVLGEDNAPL

The assay has as its target T1, hOT7T175 (Homo sapiens, UniProt Q969F8, L364H).
T1 construct: expressed in transfected cells
The format is cell-based. To be noted: hOT7T175/CHO, FLIPR, evaluation for 40 seconds after initiation of the reaction.
Experimental: The intracellular Ca ion level-increasing activity was measured using FLIPR as in TEST EXAMPLE 2.
Consider “2-Naphthoyl-Asn-Ser-Phe-AzaGly-Leu-Arg(Me)-Trp-NH2 [Compound No. 535]”, for which the “Specific Act. (EC50/MS10 EC50)” value is 0.8.

With “3-Phenylpropionyl-Asn-Aze(2)-Phe-AzaGly-Leu-Arg(Me)-Trp-NH2 [Compound No. 532]”, the “Specific Act. (EC50/MS10 EC50)” value came out at 1.0.

Take “3-Phenylpropionyl-Asn-D-Pro-Phe-AzaGly-Leu-Arg(Me)-Trp-NH2 [Compound No. 533]”: the “Specific Act. (EC50/MS10 EC50)” value was found to be 9.7.

For the compound “3-Phenylpropionyl-Asn-Pic(2)-Phe-AzaGly-Leu-Arg(Me)-Trp-NH2 [Compound No. 531]”, the “Specific Act. (EC50/MS10 EC50)” value worked out at 1.8.

On to “3-Phenylpropionyl-Asn-Pro-Phe-AzaGly-Leu-Arg(Me)-Trp-NH2 [Compound No. 524]”, for which the “Specific Act. (EC50/MS10 EC50)” value was determined as 1.1.

As to “3-Phenylpropionyl-Asn-Ser(Ac)-Phe-AzaGly-Leu-Arg(Me)-Trp-NH2 [Compound No. 546]”, the “Specific Act. (EC50/MS10 EC50)” value was determined as 1.9.

On to “3-Phenylpropionyl-Asn-Ser-Cha-Gly-Leu-Arg(Me)-Trp-NH2 [Compound No. 518]”, for which the “Specific Act. (EC50/MS10 EC50)” value was 10.5.

Take `CNC(=N)NCCC[C@H](NC(=O)[C@H](CC(C)C)NC(=O)CNC(=O)[C@H](Cc1ccccc1)NC(=O)[C@H](CO)NC(=O)[C@H](CC(N)=O)NC(=O)[C@H](Cc1c[nH]c2ccccc12)NC(=O)[C@H](CC(N)=O)NC(=O)[C@@H](N)Cc1ccc(O)cc1)C(=O)N[C@@H](Cc1ccccc1)C(N)=O` [Compound No. 82]: the “Specific Act. (EC50/MS10 EC50)” value was determined as 1.0.

With `CNC(=N)NCCC[C@H](NC(=O)[C@H](CC(C)C)NC(=O)NNC(=O)[C@H](Cc1ccccc1)NC(=O)[C@H](CO)NC(=O)[C@H](CC(N)=O)NC(=O)[C@H](CO)NC(=O)[C@H](N)Cc1ccc(O)cc1)C(=O)N[C@@H](Cc1ccccc1)C(N)=O` [Compound No. 239, D-Tyr-Ser-Asn-Ser-Phe-AzaGly-Leu-Arg(Me)-Phe-NH2] (H-[dY]SNSF[azaGly]L[Arg(Me)]F-NH2), the “Specific Act. (EC50/MS10 EC50)” value is 6.7.

Turning to `CC[C@H](C)[C@H](NC(=O)[C@H](N)Cc1ccc(O)cc1)C(=O)N[C@@H](CC(N)=O)C(=O)N[C@@H](CO)C(=O)N[C@@H](Cc1ccccc1)C(=O)NNC(=O)N[C@@H](CC(C)C)C(=O)N[C@@H](CCCNC(=N)NC)C(=O)N[C@@H](Cc1ccccc1)C(N)=O` [Compound No. 240, D-Tyr-Ile-Asn-Ser-Phe-AzaGly-Leu-Arg(Me)-Phe-NH2] (H-[dY]INSF[azaGly]L[Arg(Me)]F-NH2), the “Specific Act. (EC50/MS10 EC50)” value is 4.9.

In the case of “Ac-D-Tyr-D-Pro-Asn-Thr-Phe-AzaGly-Leu-Arg(Me)-Trp-NH2 (Ac-[dY][dP]NTF[azaGly]L[Arg(Me)]W-NH2; SMILES CNC(=N)NCCC[C@H](NC(=O)[C@H](CC(C)C)NC(=O)NNC(=O)[C@H](Cc1ccccc1)NC(=O)[C@@H](NC(=O)[C@H](CC(N)=O)NC(=O)[C@H]1CCCN1C(=O)[C@@H](Cc1ccc(O)cc1)NC(C)=O)[C@@H](C)O)C(=O)N[C@@H](Cc1c[nH]c2ccccc12)C(N)=O) [Compound No. 661]”, the “Specific Act. (EC50/MS10 EC50)” value came to 8.5.

Take “Ac-D-Tyr-D-Pya(4)-Asn-Thr-D-Phe-AzaGly-Leu-Arg(Me)-Trp-NH2 [Compound No. 603]”: the “Specific Act. (EC50/MS10 EC50)” value came out at 1.7.

“Ac-D-Tyr-D-Pya(4)-Asn-Thr-Phe-AzaGly-Leu-Arg(Me)-Phe-NH2 [Compound No. 685]”: the “Specific Act. (EC50/MS10 EC50)” value is listed as 4.8.

With “Ac-D-Tyr-D-Trp-Alb-Ser-Phe-AzaGly-Leu-Arg(Me)-Trp-NH2 [Compound No. 579]”, the “Specific Act. (EC50/MS10 EC50)” value stood at 0.6.

As for “Ac-D-Tyr-D-Trp-Asn-Aze(2)-Phe-AzaGly-Leu-Arg(Me)-Trp-NH2 [Compound No. 563]”, the “Specific Act. (EC50/MS10 EC50)” value came out at 0.7.

Turning to “Ac-D-Tyr-D-Trp-Asn-Thr-Phe-AzaGly-Abu-Arg(Me)-Trp-NH2 (Ac-[dY][dW]NTF[azaGly][Abu][Arg(Me)]W-NH2; SMILES CC[C@H](NC(=O)NNC(=O)[C@H](Cc1ccccc1)NC(=O)[C@@H](NC(=O)[C@H](CC(N)=O)NC(=O)[C@@H](Cc1c[nH]c2ccccc12)NC(=O)[C@@H](Cc1ccc(O)cc1)NC(C)=O)[C@@H](C)O)C(=O)N[C@@H](CCCNC(=N)NC)C(=O)N[C@@H](Cc1c[nH]c2ccccc12)C(N)=O) [Compound No. 698]”, the “Specific Act. (EC50/MS10 EC50)” value amounted to 2.2.

“Ac-D-Tyr-D-Trp-Asn-Thr-Phe-AzaGly-Gln-Arg(Me)-Trp-NH2 (Ac-[dY][dW]NTF[azaGly]Q[Arg(Me)]W-NH2; SMILES CNC(=N)NCCC[C@H](NC(=O)[C@H](CCC(N)=O)NC(=O)NNC(=O)[C@H](Cc1ccccc1)NC(=O)[C@@H](NC(=O)[C@H](CC(N)=O)NC(=O)[C@@H](Cc1c[nH]c2ccccc12)NC(=O)[C@@H](Cc1ccc(O)cc1)NC(C)=O)[C@@H](C)O)C(=O)N[C@@H](Cc1c[nH]c2ccccc12)C(N)=O) [Compound No. 682]”: the “Specific Act. (EC50/MS10 EC50)” value stood at 7.3.

Turning to “Ac-D-Tyr-D-Trp-Asn-Thr-Phe-AzaGly-Ile-Arg(Me)-Trp-NH2 (Ac-[dY][dW]NTF[azaGly]I[Arg(Me)]W-NH2; SMILES CC[C@H](C)[C@H](NC(=O)NNC(=O)[C@H](Cc1ccccc1)NC(=O)[C@@H](NC(=O)[C@H](CC(N)=O)NC(=O)[C@@H](Cc1c[nH]c2ccccc12)NC(=O)[C@@H](Cc1ccc(O)cc1)NC(C)=O)[C@@H](C)O)C(=O)N[C@@H](CCCNC(=N)NC)C(=O)N[C@@H](Cc1c[nH]c2ccccc12)C(N)=O) [Compound No. 678]”, the “Specific Act. (EC50/MS10 EC50)” value is reported as 1.1.

On to “Ac-D-Tyr-D-Trp-Asn-Thr-Phe-AzaGly-Leu-Arg(Me2)asym-Trp-NH2 [Compound No. 607]”, for which the “Specific Act. (EC50/MS10 EC50)” value was found to be 2.2.

On to “Ac-D-Tyr-D-Trp-Asn-Thr-Phe-AzaGly-Leu-Arg(Me)-D-Trp-NH2 (Ac-[dY][dW]NTF[azaGly]L[Arg(Me)][dW]-NH2; SMILES CNC(=N)NCCC[C@H](NC(=O)[C@H](CC(C)C)NC(=O)NNC(=O)[C@H](Cc1ccccc1)NC(=O)[C@@H](NC(=O)[C@H](CC(N)=O)NC(=O)[C@@H](Cc1c[nH]c2ccccc12)NC(=O)[C@@H](Cc1ccc(O)cc1)NC(C)=O)[C@@H](C)O)C(=O)N[C@H](Cc1c[nH]c2ccccc12)C(N)=O) [Compound No. 689]”, for which the “Specific Act. (EC50/MS10 EC50)” value is on record as 2.3.

“Ac-D-Tyr-D-Trp-Asn-Thr-Phe-AzaGly-Leu-Har(Me)-Trp-NH2 [Compound No. 646]”: the “Specific Act. (EC50/MS10 EC50)” value was found to be 1.8.

Regarding “Ac-D-Tyr-D-Trp-Asn-Thr-Phe-AzaGly-Leu-Pya(4)-Trp-NH2 (Ac-[dY][dW]NTF[azaGly]L-{Pya(4)-Trp-NH2}) [Compound No. 688]”, the “Specific Act. (EC50/MS10 EC50)” value is 9.7.

Regarding “Ac-D-Tyr-D-Trp-Asn-Thr-Phe-AzaGly-γMeLeu-Arg(Me)-Trp-NH2 (Ac-[dY][dW]NTF[azaGly]-{γMeLeu-Arg(Me)-Trp-NH2}) [Compound No. 699]”, the “Specific Act. (EC50/MS10 EC50)” value turned out to be 1.3.

As for “Ac-D-Tyr-D-Trp-Asn-Thr-Phe-Gly-Aib-Arg(Me)-Trp-NH2 (Ac-[dY][dW]NTFG[Aib][Arg(Me)]W-NH2; SMILES CNC(=N)NCCC[C@H](NC(=O)C(C)(C)NC(=O)CNC(=O)[C@H](Cc1ccccc1)NC(=O)[C@@H](NC(=O)[C@H](CC(N)=O)NC(=O)[C@@H](Cc1c[nH]c2ccccc12)NC(=O)[C@@H](Cc1ccc(O)cc1)NC(C)=O)[C@@H](C)O)C(=O)N[C@@H](Cc1c[nH]c2ccccc12)C(N)=O) [Compound No. 700]”, the “Specific Act. (EC50/MS10 EC50)” value was 0.8.

With “Ac-D-Tyr-D-Trp-Asn-Thr-PheΨ(CH2NH)Gly-Leu-Arg(Me)-Trp-NH2 [Compound No. 569]”, the “Specific Act. (EC50/MS10 EC50)” value was found to be 0.5.

In the case of “Ac-D-Tyr-D-Trp-Asn-Thr-Trp-AzaGly-Leu-Arg(Me)-Trp-NH2 (Ac-[dY][dW]NTW[azaGly]L[Arg(Me)]W-NH2; SMILES CNC(=N)NCCC[C@H](NC(=O)[C@H](CC(C)C)NC(=O)NNC(=O)[C@H](Cc1c[nH]c2ccccc12)NC(=O)[C@@H](NC(=O)[C@H](CC(N)=O)NC(=O)[C@@H](Cc1c[nH]c2ccccc12)NC(=O)[C@@H](Cc1ccc(O)cc1)NC(C)=O)[C@@H](C)O)C(=O)N[C@@H](Cc1c[nH]c2ccccc12)C(N)=O) [Compound No. 692]”, the “Specific Act. (EC50/MS10 EC50)” value is on record as 0.7.

Turning to “Ac-D-Tyr-D-Trp-Asn-Thr-Tyr(Me)-AzaGly-Leu-Arg(Me)-Trp-NH2 (Ac-[dY][dW]NT[Tyr(Me)][azaGly]L[Arg(Me)]W-NH2; SMILES CNC(=N)NCCC[C@H](NC(=O)[C@H](CC(C)C)NC(=O)NNC(=O)[C@H](Cc1ccc(OC)cc1)NC(=O)[C@@H](NC(=O)[C@H](CC(N)=O)NC(=O)[C@@H](Cc1c[nH]c2ccccc12)NC(=O)[C@@H](Cc1ccc(O)cc1)NC(C)=O)[C@@H](C)O)C(=O)N[C@@H](Cc1c[nH]c2ccccc12)C(N)=O) [Compound No. 693]”, the “Specific Act. (EC50/MS10 EC50)” value is given as 1.5.

As for “Ac-D-Tyr-D-Trp-Asn-Thr-Tyr-AzaGly-Leu-Arg(Me)-Trp-NH2 (Ac-[dY][dW]NTY[azaGly]L[Arg(Me)]W-NH2; SMILES CNC(=N)NCCC[C@H](NC(=O)[C@H](CC(C)C)NC(=O)NNC(=O)[C@H](Cc1ccc(O)cc1)NC(=O)[C@@H](NC(=O)[C@H](CC(N)=O)NC(=O)[C@@H](Cc1c[nH]c2ccccc12)NC(=O)[C@@H](Cc1ccc(O)cc1)NC(C)=O)[C@@H](C)O)C(=O)N[C@@H](Cc1c[nH]c2ccccc12)C(N)=O) [Compound No. 691]”, the “Specific Act. (EC50/MS10 EC50)” value came to 1.1.

“Ac-D-Tyr-D-Trp-Asp(NMe2)-Thr-Phe-AzaGly-Leu-Arg(Me)-Trp-NH2 [Compound No. 703]”: the “Specific Act. (EC50/MS10 EC50)” value came to 3.7.

As for “Ac-D-Tyr-D-Trp-Gly-Ser-Phe-AzaGly-Leu-Arg(Me)-Trp-NH2 (Ac-[dY][dW]GSF[azaGly]L[Arg(Me)]W-NH2; SMILES CNC(=N)NCCC[C@H](NC(=O)[C@H](CC(C)C)NC(=O)NNC(=O)[C@H](Cc1ccccc1)NC(=O)[C@H](CO)NC(=O)CNC(=O)[C@@H](Cc1c[nH]c2ccccc12)NC(=O)[C@@H](Cc1ccc(O)cc1)NC(C)=O)C(=O)N[C@@H](Cc1c[nH]c2ccccc12)C(N)=O) [Compound No. 686]”, the “Specific Act. (EC50/MS10 EC50)” value is on record as 0.6.

“Ac-D-Tyr-Pya(4)-Asn-Thr-Phe-AzaGly-Leu-Arg(Me)-Trp-NH2 [Compound No. 624]”: the “Specific Act. (EC50/MS10 EC50)” value came out at 1.2.

As for “Ac-Tyr-D-Pya(4)-Asn-Thr-Phe-AzaGly-Leu-Arg(Me)-Trp-NH2 [Compound No. 611]”, the “Specific Act. (EC50/MS10 EC50)” value worked out at 1.7.

With “Ac-[d1Nal][dW]NTF[azaGly]L[Arg(Me)]W-NH2 [Compound No. 619]”, the “Specific Act. (EC50/MS10 EC50)” value worked out at 1.5.
